pIC50: −log10 of the molar value. Read-outs that look alike come from different tables or passages of the source.
Molecular target: recombinant eIF4E (Homo sapiens (Human), UniProt P06730)
Experiment: Fluorescence polarization competition assay for eIF4E binding potency
Method in brief: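 Competition of test compound against 20 nM EDA-m^7GDP-ATTO-550 for 75 nM recombinant eIF4E, pre-incubated 5 min, in 20 mM Tris pH 7.5, 100 mM NaCl, 1 mM DTT, 0.02% Tween-20, 1% DMSO. Equilibrated 30 min at room temperature, dark; fluorescence polarization read. IC50 from 8-point, 3-fold dilution series.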

[1] = fluorescence polarization competition, 75 nM recombinant eIF4E, 20 nM EDA-m7GDP-ATTO-550, IC50 class, read-out: elF4E FP
[2] = inhibition of eIF4E/EDA-m7GDP-ATTO-550 binding by 50%, Table 4B calculated values, read-out: IC50

Sequence of recombinant eIF4E (P06730 whole entry): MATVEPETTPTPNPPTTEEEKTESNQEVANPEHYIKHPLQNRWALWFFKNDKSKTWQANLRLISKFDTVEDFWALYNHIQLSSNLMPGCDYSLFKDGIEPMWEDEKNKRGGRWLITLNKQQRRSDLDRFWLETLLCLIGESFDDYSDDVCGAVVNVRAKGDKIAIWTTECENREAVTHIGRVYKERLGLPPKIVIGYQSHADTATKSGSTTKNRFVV

SMILES	pIC50 [1]	pIC50 [2]
Cc1cc(-c2cc(Cl)ccc2OCCn2c(C)nc3c(F)cc(C(F)F)c(C#N)c3c2=O)c2scc(C(=O)NS(=O)(=O)C(F)(F)F)c2n1 [compound 593]	> 7.30	7.48
Cc1cc(-c2cc(Cl)ccc2OCCn2c(C)nc3c(F)cc(C(F)F)c(C#N)c3c2=O)c2scc(C(=O)NC(=O)N(C)C)c2n1 [compound 594]	< 6.00	5.87
Cc1cc(-c2cc(Cl)ccc2OCCn2c(C)nc3cnc(C#N)cc3c2=O)c2scc(C(=O)NS(C)(=O)=O)c2n1 [compound 598]	6.00 to 7.30	7.24
Cc1cc(-c2cc(Cl)ccc2OCCn2c(C)nc3cncc(C#N)c3c2=O)c2scc(C(=O)NS(C)(=O)=O)c2n1 [compound 600]	> 7.30	7.85
Cc1cc(-c2cc(Cl)ccc2C#CCn2c(C)nc3cncc(C#N)c3c2=O)c2scc(C(=O)O)c2n1 [compound 601]	6.00 to 7.30	7.28
Cc1cc(-c2cc(Cl)ccc2OCCn2c(C)nc3cc(CCCN(C)C)c(Cl)c(C#N)c3c2=O)c2scc(C(=O)O)c2n1 [compound 606]	> 7.30	8.39
Cc1cc(-c2cc(Cl)ccc2OCCn2c(C)nc3cc(CCN(C)C)c(OC(F)F)c(C#N)c3c2=O)c2scc(C(=O)O)c2n1 [compound 607]	> 7.30	8.26
Cc1cc(-c2cc(Cl)ccc2OCCn2c(C)nc3c(F)cc(CCN(C)C)c(C#N)c3c2=O)c2scc(C(=O)O)c2n1 [compound 608]	> 7.30	7.73
Cc1cc(-c2cc(Cl)ccc2OCCn2c(C)nc3cc(Cl)c(CCN(C)C)c(C#N)c3c2=O)c2scc(C(=O)O)c2n1 [compound 609]	> 7.30	7.48
Cc1cc(-c2cc(Cl)ccc2OCCn2c(C)nc3cc4c(c(C#N)c3c2=O)CC(N(C)C)C4)c2scc(C(=O)O)c2n1 (centres unmarked) [compound 611]	> 7.30	8.11
Cc1cc(-c2cc(Cl)ccc2OCCn2c(C)nc3cc4c(c(C#N)c3c2=O)C(N(C)C)CC4)c2scc(C(=O)O)c2n1 (centres unmarked) [compound 612]	> 7.30	7.36
Cc1nc2cc(C(F)(F)F)c(CN3CCN(C)CC3)c(C#N)c2c(=O)n1CC#Cc1ccc(Cl)cc1-c1ccnc2c(C(=O)O)csc12 [compound 615]	> 7.30	7.79
Cc1c(CN(C)C)c(C(F)(F)F)cc2nc(C)n(CCOc3ccc(Cl)cc3-c3ccnc4c(C(=O)O)csc34)c(=O)c12 [compound 620]	> 7.30	7.43
Cc1nc2cc(C(F)F)c(CN(C)C)c(C#N)c2c(=O)n1CC#Cc1ccc(Cl)cc1-c1ccnc2c(C(=O)O)csc12 [compound 622]	> 7.30	7.36
Cc1nc2cc(CN(C)C)c(C(F)(F)F)c(C#N)c2c(=O)n1CC#Cc1ccc(Cl)cc1-c1ccnc2c(C(=O)O)csc12 [compound 623]	> 7.30	8.32
Cc1nc2cncc(C#N)c2c(=O)n1CC#Cc1ccc(Cl)cc1-c1ccnc2c(C(=O)O)csc12 [compound 624]	> 7.30	8.40
Cc1nc2cnc(C#N)cc2c(=O)n1CC#Cc1ccc(Cl)cc1-c1ccnc2c(C(=O)O)csc12 [compound 625]	6.00 to 7.30	7.11
Cc1nc2cc(CN(C)C)c(OC(F)F)c(C#N)c2c(=O)n1CC#Cc1ccc(Cl)cc1-c1ccnc2c(C(=O)O)csc12 [compound 626]	> 7.30	7.98
Cc1cc(-c2cc(Cl)ccc2OCCn2c(C)nc3cc(C(F)F)c(C)c(C#N)c3c2=O)c2scc(C(=O)O)c2n1 [compound 627]	> 7.30	8.17
Cc1cc(-c2cc(Cl)ccc2OCCn2c(C)nc3cc(CN(C)C)c(C(F)(F)F)c(C#N)c3c2=O)c2scc(C(=O)O)c2n1 [compound 635]	> 7.30	7.97
Cc1nc2cc(C(F)(F)F)c(N3CCN(CC(F)(F)F)CC3)c(C#N)c2c(=O)n1CCOc1ccc(Cl)cc1-c1ccnc2c(C(=O)O)csc12 [compound 640]	> 7.30	7.62
Cc1nc2cc(C(F)(F)F)c(CN3CCN(C)CC3)c(C#N)c2c(=O)n1CCOc1ccc(Cl)cc1-c1cc(CF)nc2c(C(=O)O)csc12 [compound 645]	> 7.30	7.50
Cc1cc(-c2cc(Cl)ccc2OCCn2c(C)nc3cc(C(F)F)c(CN4CCN(C)CC4)c(C#N)c3c2=O)c2scc(C(=O)O)c2n1 [compound 646]	> 7.30	7.38

Continued, values first:

pIC50 [1]	pIC50 [2]	SMILES
> 7.30	7.61	C=C1c2c(C#N)cc(C(F)(F)F)cc2N=C(C)N1CCOc1ccc(Cl)cc1-c1cc(CCO)nc2c(C(=O)O)csc12 [compound 595]
> 7.30	7.42	Cc1cc(-c2cc(Cl)ccc2OCCn2c(C)nc3cnc(C#N)cc3c2=O)c2scc(C(=O)O)c2n1 [compound 596]
> 7.30	7.33	Cc1cc(-c2cc(Cl)ccc2OCCn2c(C)nc3cncc(C#N)c3c2=O)c2scc(C(=O)O)c2n1 [compound 597]
6.00 to 7.30	7.21	Cc1cc(-c2cc(Cl)ccc2C#CCn2c(C)nc3cnc(C#N)cc3c2=O)c2scc(C(=O)O)c2n1 [compound 599]
> 7.30	7.99	Cc1cc(-c2cc(Cl)ccc2OCCn2c(C)nc3cnc(OC(F)F)c(C#N)c3c2=O)c2scc(C(=O)O)c2n1 [compound 602]
> 7.30	7.93	Cc1nc(N2CCN(C)C3CC32)c(C#N)c2c(=O)n(CCOc3ccc(Cl)cc3-c3ccnc4c(C(=O)O)csc34)c(C)nc12 (centres unmarked) [compound 603]
6.00 to 7.30	7.15	Cc1cc(-c2cc(Cl)ccc2OCCn2c(C)nc3c(OC(F)F)ncc(C#N)c3c2=O)c2scc(C(=O)O)c2n1 [compound 604]
> 7.30	7.86	Cc1cc(-c2cc(Cl)ccc2OCCn2c(C)nc3cc(C(F)(F)F)c(CCN(C)C)c(C#N)c3c2=O)c2scc(C(=O)O)c2n1 [compound 610]
> 7.30	8.10	Cc1cc(-c2cc(Cl)ccc2OCCn2c(C)nc3cc4c(c(C#N)c3c2=O)CCC4N(C)C)c2scc(C(=O)O)c2n1 (centres unmarked) [compound 613]
> 7.30	8.61	Cc1cc(-c2cc(Cl)ccc2C#CCn2c(C)nc3cc(C(F)(F)F)c(CN4CCN(C)CC4)c(C#N)c3c2=O)c2scc(C(=O)O)c2n1 [compound 616]
> 7.30	7.40	Cc1nc2cc(C(F)(F)F)c(CN3CCOCC3)c(C#N)c2c(=O)n1CC#Cc1ccc(Cl)cc1-c1ccnc2c(C(=O)O)csc12 [compound 617]
> 7.30	8.53	Cc1cc(-c2cc(Cl)ccc2OCCn2c(C)nc3cc(CN(C)C(C)(C)C)c(OC(F)F)c(C#N)c3c2=O)c2scc(C(=O)O)c2n1 [compound 618]
> 7.30	8.20	Cc1cc(-c2cc(Cl)ccc2OCCn2c(C)nc3cc(CNC(C)(C)C)c(OC(F)F)c(C#N)c3c2=O)c2scc(C(=O)O)c2n1 [compound 619]
6.00 to 7.30	7.22	Cc1nc2cc(C(F)(F)F)c(CN(C)C)c(F)c2c(=O)n1CCOc1ccc(Cl)cc1-c1ccnc2c(C(=O)O)csc12 [compound 621]
> 7.30	7.55	Cc1cc(-c2cc(Cl)ccc2OCCn2c(C)nc3cc(C)c(C)c(C#N)c3c2=O)c2scc(C(=O)O)c2n1 [compound 628]
> 7.30	8.19	Cc1cc(-c2cc(Cl)ccc2OCCn2c(C)nc3cc(C(F)(F)F)c(-c4ccncc4)c(C#N)c3c2=O)c2scc(C(=O)O)c2n1 [compound 629]
6.00 to 7.30	7.30	Cc1cc(-c2cc(Cl)ccc2OCCn2c(C)nc3cc(C(F)(F)F)c(-c4cccnc4)c(C#N)c3c2=O)c2scc(C(=O)O)c2n1 [compound 630]
> 7.30	8.47	Cc1cc(-c2cc(Cl)ccc2OCCn2c(C)nc3cc(C(F)(F)F)c(-c4ccccn4)c(C#N)c3c2=O)c2scc(C(=O)O)c2n1 [compound 631]
> 7.30	7.92	Cc1cc(-c2cc(Cl)ccc2OCCn2c(C)nc3cc(C(F)(F)F)c(-n4ccnc4)c(C#N)c3c2=O)c2scc(C(=O)O)c2n1 [compound 632]
> 7.30	7.89	Cc1cc(-c2cc(Cl)ccc2OCCn2c(C)nc3cc(C(F)(F)F)c(-n4cccn4)c(C#N)c3c2=O)c2scc(C(=O)O)c2n1 [compound 633]
> 7.30	7.48	Cc1nc2cc(C(F)(F)F)cc(C#N)c2c(=O)n1CCOc1ccc(Cl)cc1-c1cc(CN(C)C)nc2c(C(=O)O)csc12 [compound 636]
> 7.30	7.78	CCc1cc(-c2cc(Cl)ccc2OCCn2c(C)nc3cc(C(F)(F)F)c(CN4CCN(C)CC4)c(C#N)c3c2=O)c2scc(C(=O)O)c2n1 [compound 637]
> 7.30	8.35	COc1cc(-c2cc(Cl)ccc2OCCn2c(C)nc3cc(C(F)(F)F)c(CN4CCN(C)CC4)c(C#N)c3c2=O)c2scc(C(=O)O)c2n1 [compound 638]
> 7.30	–	CCc1cc(-c2cc(Cl)ccc2OCCn2c(C)nc3cc(CN(C)C)c(OC(F)F)c(C#N)c3c2=O)c2scc(C(=O)O)c2n1 [compound 639]
> 7.30	7.48	Cc1sc2c(-c3cc(Cl)ccc3OCCn3cnc4cc(C(F)(F)F)c(CN(C)C)c(C#N)c4c3=O)ccnc2c1C(=O)O [compound 641]
> 7.30	8.44	Cc1cc(-c2cc(Cl)ccc2OCCn2c(C)nc3cc(C(F)(F)F)c(CN4C[C@@H](C)O[C@@H](C)C4)c(C#N)c3c2=O)c2scc(C(=O)O)c2n1 [compound 642]
> 7.30	9.08	Cc1sc2c(-c3cc(Cl)ccc3C#CCn3c(C)nc4cc(C(F)(F)F)c(CN5CCN(C)CC5)c(C#N)c4c3=O)ccnc2c1C(=O)O [compound 643]
> 7.30	8.30	Cc1nc2cc(C(F)(F)F)c(CN3CCN(C)CC3)c(C#N)c2c(=O)n1CCOc1ccc(Cl)cc1-c1cc(CCF)nc2c(C(=O)O)csc12 [compound 644]
